For 74 molecules, GFP fluorescence, lower = active (kMESF (background-subtracted)) results are on record in PubChem BioAssay AID2740 (NMMLSC, 2010).

Molecules are shown by their SMILES. Activity calls are given as the source filed them.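 The calls were made as follows: active = compounds whose fitted half-maximal concentration for changing the GFP signal is at or below a set limit; inactive = the rest.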

The experiment in a line: TOR pathway RPL19A-GFP modulators, concentration series – cell-based, S. cerevisiae, flow cytometry, MLPCN hits, dose response (AID 2740).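 Also: background is signal of the same compound in parental non-GFP s288c yeast.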 As to conditions: S. cerevisiae RPL19A-GFP strain, flow cytometry fluorescence, 3 h; at 33 µM (top of the series). For orientation: Flow cytometry measures light scatter and fluorescence of single cells or particles in a stream.
Regarding `O/C=c1\ccc2cccc3nc(C(F)(F)F)nc1c23`, the GFP fluorescence, lower = active (kMESF (background-subtracted)) is 53.9 (inactive).

On to `COC(=O)CCC(=O)OC1(C)C(=O)C2=COC(c3ccc(OC)cc3)=CC2=C(Br)C1=O` (centres undefined), for which the GFP fluorescence, lower = active (kMESF (background-subtracted)) is 32.8 (inactive). The figure for `COc1ccc2c(c1)c(/C=C/c1cc[n+](C)cc1)cn2C` is 40 (inactive). For `CC1=C(C)/C(=N\OS(=O)(=O)c2ccc(C)cc2)C=CC1=O` the value was 16.9 (inactive). For `O=C(Oc1c(Cl)cc(Cl)c2cccnc12)c1cccc([N+](=O)[O-])c1` the value was 24.8 (inactive); for `O=C1c2ccccc2C(=O)N1OS(=O)(=O)c1ccc(F)cc1`, 37.2 (inactive); for `CC(C)CC(=O)NC(=S)Nc1nc(-c2ccccc2)cs1`, 38.4 (inactive). Take `COc1cccc(N=Nc2ccc(O)c3ncccc23)c1`: the GFP fluorescence, lower = active (kMESF (background-subtracted)) was 50.7 (inactive). The figure for `CCOC(=O)CSC1=NC(=O)/C(=C/c2ccc(Br)cc2)S1` is 38.5 (inactive); for `O=C(NC(=S)NNC(=O)c1ccc(Cl)cc1Cl)c1cccnc1` it is 18.7 (inactive). Turning to `CCC(=O)Nc1ccc(NC(=O)c2cc3ccccc3o2)cc1`, the GFP fluorescence, lower = active (kMESF (background-subtracted)) was 39.4 (inactive). For `COc1cc(NC(=O)c2ccccc2[N+](=O)[O-])ccc1NC(=O)c1cc2ccccc2o1` the value was 39.2 (inactive). For `Oc1c(C(Nc2nc3ccccc3s2)c2ccco2)ccc2cccnc12` (centres undefined) the value was 43.4 (inactive).

Turning to `Cc1cc(C(=O)COC(=O)c2ccc[nH]c2=O)c(C)n1-c1ccccc1F`, the GFP fluorescence, lower = active (kMESF (background-subtracted)) is 28.1 (inactive). The figure for `O=C(c1ccc(Cl)cc1)N1CCN(c2cccc3[nH]ccc23)CC1` is 41.9 (inactive); for `CC(=O)N(C(C)=O)c1ncnc2c1c(-c1ccc(Cl)cc1)nn2C(C)(C)C` it is 42.9 (inactive); for `COc1cccc(/C=N/Nc2ncc(C(F)(F)F)cc2Cl)c1O` it is 38.7 (inactive).

Consider `O=C1C(=O)c2ccccc2-c2ccccc21`, for which the GFP fluorescence, lower = active (kMESF (background-subtracted)) is 17.7 (inactive). With `Cc1ccccc1[C@@]1(C)ON(c2ccccc2C(F)(F)F)C1=O`, the GFP fluorescence, lower = active (kMESF (background-subtracted)) is 40.6 (inactive).

With `O=C(Sc1cccc2cccnc12)c1ccccc1Br`, the GFP fluorescence, lower = active (kMESF (background-subtracted)) was 34.8 (inactive).

In the case of `O=C1C=C(c2ccc(Cl)cc2)C(=O)N1Nc1ccccc1`, the GFP fluorescence, lower = active (kMESF (background-subtracted)) is 18.7 (inactive).

As to `Oc1c(I)cc(Cl)c2cccnc12`, the GFP fluorescence, lower = active (kMESF (background-subtracted)) is 25.8 (inactive). For `O=C(NOC(=O)c1ccccc1)c1ccccc1` the value was 38.1 (inactive); for `Cc1ccc(C(=O)Sc2cccccc2=O)cc1`, 27.8 (inactive); for `Cc1cc(C)c(S(=O)(=O)N2CCC(C(=O)NCc3ccc(Cl)cc3Cl)CC2)c(C)c1`, 31.7 (inactive). The figure for `Cc1ccc2[nH]c(C)c(/C=C/c3cc[n+](C)cc3)c2c1` is 37.4 (inactive). Take `CC(=O)CSc1ncnc2c1cnn2-c1ccccc1`: the GFP fluorescence, lower = active (kMESF (background-subtracted)) is 37.7 (inactive).

Turning to `CCN(CC)C(=O)Oc1ccnc2cc(Cl)ccc12`, the GFP fluorescence, lower = active (kMESF (background-subtracted)) is 41.8 (inactive).

For the molecule `O=C(O)c1cccc(S(=O)(=O)Nc2ccc(S(=O)(=O)N3CCOCC3)cc2)c1`, the GFP fluorescence, lower = active (kMESF (background-subtracted)) was 38.7 (inactive). For `O=[N+]([O-])c1ccc(-c2cn3nc(-c4ccccc4)c(-c4ccccc4)nc3n2)cc1` the value was 48.8 (inactive). The figure for `CCCCCCCCC/C(=N\O)c1ccccn1` is 38.8 (inactive); for `CC(C)(C)C1C/C(=C/c2ccccn2)C(=O)/C(=C/c2ccccn2)C1` (centres undefined) it is 41.4 (inactive). For `CCN(CC(=O)NC(C)(C)C)C(=O)COc1c(Cl)cc(Cl)c2ccc(C)nc12` the value was 50.3 (inactive). Regarding `CN(C)c1ccc(/C=C/c2cc[n+](C)cc2)cc1`, the GFP fluorescence, lower = active (kMESF (background-subtracted)) was 44.5 (inactive). The figure for `O=C(Nc1ccc(NC(=O)c2cc3ccccc3o2)cc1)c1ccco1` is 39.7 (inactive). The figure for `COc1ccc(-c2cc3cc(C(=O)O)ccn3c2C(=O)c2ccccc2)cc1` is 43.5 (inactive); for `O=C1CC(c2ccccc2)=NN1c1nc(-c2ccccc2)cs1` it is 19.4 (inactive); for `O=c1/c(=C/c2cccc3ccccc23)sc2ncnn12` it is 50.3 (inactive). For `COc1ccccc1N=Nc1ccc(O)c2ncccc12` the value was 32.6 (inactive). Regarding `O=C(Nc1nnc(-c2ccc(F)cc2)o1)c1cccc([N+](=O)[O-])c1`, the GFP fluorescence, lower = active (kMESF (background-subtracted)) was 43.5 (inactive). The figure for `COc1ccc(C(=O)/C=C2/C(=O)Nc3ccccc32)cc1OC` is 43.1 (inactive); for `CC[C@H](C)/C=C(C)/C=C/C1=CC2=C(Cl)C(=O)[C@@](C)(OC(C)=O)C(=O)C2=CO1` it is 4.51 (inactive); for `C=CCN1C(=O)/C(=C/c2ccc(-c3ccc(F)cc3)o2)SC1=S` it is 34.7 (inactive). The figure for `N=C1S/C(=C\c2ccco2)C(=O)N1c1nccs1` is 47.2 (inactive); for `O=C1Nc2ccccc2/C1=C\C(=O)c1ccccc1` it is 34.2 (inactive); for `COc1ccc(N2C(=O)C(Cl)=C(Nc3c(C)n(C)n(-c4ccccc4)c3=O)C2=O)cc1` it is 39.8 (inactive). The figure for `Nc1nc(N)c2nc(CNc3ccc(C(=O)NC(CCC(=O)O)C(=O)O)cc3)cnc2n1` (centres undefined) is 45.5 (inactive); for `Cc1cc(=O)n2c3c(sc2n1)C(=O)N(Cc1ccccc1)C3=O` it is 42.5 (inactive); for `CCN(CC)c1ccc2cc(-c3nc4ccccc4[nH]3)c(=O)oc2c1` it is 42.6 (inactive).

Turning to `O=C(c1ccc(Cl)c([N+](=O)[O-])c1)N1CCN(c2ccccc2)CC1`, the GFP fluorescence, lower = active (kMESF (background-subtracted)) is 46.4 (inactive). For `N/C(=N\OC(=O)c1ccc(Cl)cc1Cl)c1ccccc1` the value was 39.4 (inactive). As to `CCc1cc(C(=O)Nc2nc(-c3ccccn3)cs2)sc1C`, the GFP fluorescence, lower = active (kMESF (background-subtracted)) was 23.7 (inactive). The figure for `CC(c1ccccc1)N1C(=O)/C(=C/c2ccncc2)SC1=S` (centres undefined) is 20.6 (inactive); for `Cc1ccc(S(=O)(=O)c2ncccc2[N+](=O)[O-])cc1` it is 47.4 (inactive). For `COc1ccc(C(=O)NC(=S)NNC(=O)CCc2ccccc2)cc1` the value was 46.5 (inactive); for `O=c1c2cnn(-c3ccccc3)c2ncn1Cc1ccco1`, 35.6 (inactive); for `Cc1cc2ccccn2c1C(=O)c1ccc([N+](=O)[O-])o1`, 20.7 (inactive). For `Cc1cccc(N2C(=O)C(Cl)=C(Nc3c(C)n(C)n(-c4ccccc4)c3=O)C2=O)c1C` the value was 41.7 (inactive); for `CCCc1cc(NCc2ccccn2)n2nc(C)c(-c3ccccc3)c2n1`, 39.1 (inactive).

Consider `CC(C)C(=O)NC(c1cccs1)c1cc([N+](=O)[O-])c2cccnc2c1O` (centres undefined), for which the GFP fluorescence, lower = active (kMESF (background-subtracted)) was 31.9 (inactive).

With `Cc1cccc2c1NC(=O)/C2=C\C(=O)c1cccs1`, the GFP fluorescence, lower = active (kMESF (background-subtracted)) was 34.4 (inactive). As for `Oc1c(CN2CCCCC2)cc(Br)c2cccnc12`, the GFP fluorescence, lower = active (kMESF (background-subtracted)) was 43.4 (inactive). For `Cc1[nH]n(-c2ccccc2)c(=O)c1C(c1ccccc1[N+](=O)[O-])C(C#N)C#N` (centres undefined) the value was 24.7 (inactive); for `Cc1ccc(/C=C2\SC(=S)N(CC3CCCO3)C2=O)o1` (centres undefined), 42.5 (inactive).

Take `COc1ccc(C2=CC3=C(Br)C(=O)C(C)(O)C(=O)C3=CO2)cc1` (centres undefined): the GFP fluorescence, lower = active (kMESF (background-subtracted)) is 1.92 (inactive). For `O=S(=O)(/N=C(\Sc1ccc(Cl)cc1)c1ccccc1)c1ccccc1` the value was 33.6 (inactive).

Regarding `COc1ccc(/C=C2\C(=O)ON=C2c2ccccc2)cc1`, the GFP fluorescence, lower = active (kMESF (background-subtracted)) is 24.9 (inactive). For `CC(Oc1ccc2ccccc2c1)C(=O)NNC(=S)NC(=O)c1ccco1` (centres undefined) the value was 34.3 (inactive). On to `O=c1oc2cc(Oc3c([N+](=O)[O-])cc(C(F)(F)F)cc3[N+](=O)[O-])ccc2c2c1CCCC2`, for which the GFP fluorescence, lower = active (kMESF (background-subtracted)) is 36.1 (inactive).

In the case of `[O-][n+]1cccc2c(Br)cc(Br)c(O)c21`, the GFP fluorescence, lower = active (kMESF (background-subtracted)) is 42.9 (inactive). With `O=C1NC(=O)N(c2ccccc2)C(=O)/C1=C/c1ccc(Sc2ccccc2)o1`, the GFP fluorescence, lower = active (kMESF (background-subtracted)) was 37.1 (inactive). For `O=C1C(Cl)=C(Nc2ccccc2O)C(=O)N1CCc1ccccc1` the value was 42.1 (inactive); for `COc1ccc(C=C2C(=O)c3ccccc3C2=O)cc1O`, 38.1 (inactive); for `Cc1ccc2[nH]cc(/C=C/c3cc[n+](C)cc3)c2c1`, 38.4 (inactive).
